Test results published in the NIST ThermoML archive (doi:10.1021/je060271a).
Several values for one entry are separate records, joined by “and”; a condition that tells them apart may be missing. Equal values may be shown once.

Settings: 343.15 K, Liquid, Vibrating tube method

CCCCCCC(=O)OCC(COC(=O)CCCCCC)(COC(=O)CCCCCC)COC(=O)CCCCCC [pentaerythritol tetraheptanoate]
Settings	mass density
4113.8 kPa	943.7 kg/m3
4138.8 kPa	943.6 kg/m3
4164 kPa	943.7 kg/m3
4194.7 kPa	943.7 kg/m3
4220.3 kPa	943.6 kg/m3
4246.6 kPa	943.7 kg/m3
4273.8 kPa	943.8 kg/m3
4305 kPa	943.9 kg/m3
4331.3 kPa	943.9 kg/m3
4358.7 kPa	944 kg/m3
4390.2 kPa	943.8 kg/m3
4413.2 kPa	943.8 kg/m3
4545.2 kPa	943.9 kg/m3
4545.5 kPa	944.1 kg/m3
4546 kPa	943.9 kg/m3
4546.2 kPa	944 kg/m3
4546.5 kPa	944 kg/m3
4547.2 kPa	944 kg/m3
4547.4 kPa	944.1 kg/m3
4547.6 kPa	944 kg/m3
4547.8 kPa	944.1 kg/m3
4547.9 kPa	944.1 kg/m3
4548.3 kPa	944 kg/m3 and 944.1 kg/m3
4548.4 kPa	944 kg/m3 and 943.9 kg/m3
4548.6 kPa	944 kg/m3
4548.8 kPa	944 kg/m3 and 944.1 kg/m3
4549 kPa	943.9 kg/m3 and 944 kg/m3
4549.1 kPa	944.2 kg/m3 and 944.1 kg/m3 and 944 kg/m3
4549.3 kPa	944 kg/m3 and 944.1 kg/m3 and 943.9 kg/m3
4549.5 kPa	944 kg/m3
4549.7 kPa	944.1 kg/m3 and 944 kg/m3
4549.8 kPa	944.1 kg/m3
4549.9 kPa	944.1 kg/m3 and 944 kg/m3
4550 kPa	944 kg/m3
4550.1 kPa	944 kg/m3 and 944.1 kg/m3
4550.2 kPa	944.1 kg/m3 and 944 kg/m3 and 943.9 kg/m3
4550.4 kPa	944 kg/m3
4550.5 kPa	944 kg/m3
4550.7 kPa	944.1 kg/m3
4550.9 kPa	944 kg/m3 and 944.2 kg/m3
4551 kPa	944 kg/m3 and 944.1 kg/m3
4551.2 kPa	944.1 kg/m3 [middle of 4 runs]
4551.4 kPa	944 kg/m3 and 944.1 kg/m3
4551.5 kPa	944 kg/m3
4551.7 kPa	944.1 kg/m3 and 944 kg/m3
4551.9 kPa	944 kg/m3 and 944.1 kg/m3
4552.1 kPa	944 kg/m3 and 944.1 kg/m3
4552.2 kPa	944.1 kg/m3 and 944 kg/m3 and 944.2 kg/m3
4552.3 kPa	944.1 kg/m3
4552.4 kPa	944 kg/m3 and 944.1 kg/m3
4552.6 kPa	944 kg/m3 and 944.1 kg/m3
4552.8 kPa	944.1 kg/m3 and 943.9 kg/m3 and 944 kg/m3
4553 kPa	944 kg/m3 and 943.9 kg/m3 and 944.1 kg/m3
4553.1 kPa	944.1 kg/m3 [middle of 4 runs]
4553.3 kPa	944 kg/m3 and 944.1 kg/m3
4553.5 kPa	944.1 kg/m3 and 944 kg/m3
4553.7 kPa	944 kg/m3 and 944.1 kg/m3
4553.8 kPa	944 kg/m3 and 944.1 kg/m3
4554 kPa	944 kg/m3 and 944.1 kg/m3
4554.2 kPa	944.1 kg/m3 and 944 kg/m3
4554.3 kPa	944 kg/m3
4554.5 kPa	944.1 kg/m3 and 944 kg/m3
4554.7 kPa	944.1 kg/m3 and 943.9 kg/m3
4554.9 kPa	944.2 kg/m3 and 944 kg/m3 and 943.9 kg/m3
4555 kPa	944 kg/m3 and 944.1 kg/m3
4555.2 kPa	944 kg/m3 and 944.1 kg/m3
4555.4 kPa	944.1 kg/m3 and 944 kg/m3 and 943.9 kg/m3
4555.5 kPa	944.2 kg/m3 and 944 kg/m3 and 944.1 kg/m3
4555.7 kPa	944 kg/m3
4555.9 kPa	944 kg/m3 and 944.1 kg/m3
4556.1 kPa	944 kg/m3
4556.2 kPa	944 kg/m3 and 944.1 kg/m3
4557.6 kPa	944 kg/m3
4559 kPa	944.1 kg/m3
4559.2 kPa	944 kg/m3 and 943.9 kg/m3
4559.3 kPa	943.9 kg/m3
4559.7 kPa	944.1 kg/m3 and 944.2 kg/m3
4559.9 kPa	944.1 kg/m3
4560 kPa	944.1 kg/m3
4560.9 kPa	944.1 kg/m3
4564.5 kPa	944 kg/m3
4567.8 kPa	944 kg/m3
4571.1 kPa	944.2 kg/m3
4574.9 kPa	944 kg/m3
4578.4 kPa	944.1 kg/m3
4581.7 kPa	944 kg/m3
4584.6 kPa	943.9 kg/m3
4588.4 kPa	944 kg/m3
4591.7 kPa	944.1 kg/m3
4595.2 kPa	944.1 kg/m3
4598.3 kPa	944.1 kg/m3
4602.3 kPa	944.1 kg/m3
4605.4 kPa	943.9 kg/m3
4608.7 kPa	944.1 kg/m3
4612.7 kPa	944.2 kg/m3
4616.3 kPa	944 kg/m3
4619.4 kPa	944.1 kg/m3
4622.7 kPa	944.1 kg/m3
4626.7 kPa	944.2 kg/m3
4630 kPa	944 kg/m3
4633.1 kPa	944.1 kg/m3
4637.3 kPa	944.2 kg/m3
4640.7 kPa	944.1 kg/m3
4644 kPa	944.1 kg/m3
4647.3 kPa	944.1 kg/m3
4651.3 kPa	944 kg/m3
4654.6 kPa	944.1 kg/m3
4658.4 kPa	944 kg/m3
4662 kPa	944.1 kg/m3
4665.5 kPa	944.2 kg/m3
4669.3 kPa	944.1 kg/m3
4672.9 kPa	944.2 kg/m3
4676.2 kPa	944.1 kg/m3
4680 kPa	944.2 kg/m3
4683.3 kPa	944.1 kg/m3
4687.3 kPa	944.1 kg/m3
4690.8 kPa	944.1 kg/m3
4693.9 kPa	944.2 kg/m3
4698.2 kPa	944.2 kg/m3
4701.7 kPa	944.1 kg/m3
4705 kPa	944.2 kg/m3
4708.9 kPa	944.2 kg/m3
4712.2 kPa	944.2 kg/m3
4715.9 kPa	944.1 kg/m3
4719.3 kPa	944.1 kg/m3
4723.7 kPa	944.1 kg/m3
4726.4 kPa	944.2 kg/m3
4730.1 kPa	944.2 kg/m3
4733.2 kPa	944.2 kg/m3
4737.5 kPa	944.3 kg/m3
4741 kPa	944.2 kg/m3
4744.3 kPa	944.2 kg/m3
4747.7 kPa	944.2 kg/m3
4752.2 kPa	944 kg/m3
4755.3 kPa	944.1 kg/m3
4759 kPa	944.1 kg/m3
4763.1 kPa	944.1 kg/m3
4766.6 kPa	944.2 kg/m3
4770.2 kPa	944.3 kg/m3
4774.2 kPa	944.2 kg/m3
4777.7 kPa	944.3 kg/m3
4781.6 kPa	944.1 kg/m3
4785.1 kPa	944.2 kg/m3
4788.7 kPa	944.4 kg/m3
4792.9 kPa	944.3 kg/m3
4796.7 kPa	944.2 kg/m3
4800 kPa	944.2 kg/m3
4804.5 kPa	944.2 kg/m3
4807.9 kPa	944.3 kg/m3
4811.2 kPa	944.2 kg/m3
4815.9 kPa	944.1 kg/m3
4819.4 kPa	944.2 kg/m3
4823.2 kPa	944.2 kg/m3
4826.8 kPa	944.3 kg/m3
4831 kPa	944.2 kg/m3
4834.6 kPa	944.2 kg/m3
4838.2 kPa	944.2 kg/m3
4842 kPa	944.1 kg/m3
4846.4 kPa	944.4 kg/m3
4849.8 kPa	944.2 kg/m3
4853.5 kPa	944.2 kg/m3
4857.8 kPa	944.3 kg/m3
4861.9 kPa	944.3 kg/m3
4865.4 kPa	944.3 kg/m3
4869.2 kPa	944.3 kg/m3
4872.8 kPa	944.2 kg/m3
4877.3 kPa	944.3 kg/m3
4881 kPa	944.3 kg/m3
4884.8 kPa	944.3 kg/m3
4889.1 kPa	944.2 kg/m3
4892.9 kPa	944.2 kg/m3
4896.6 kPa	944.3 kg/m3
4901.2 kPa	944.3 kg/m3
4905 kPa	944.3 kg/m3
4908.5 kPa	944.2 kg/m3
4913 kPa	944.2 kg/m3
4916.8 kPa	944.3 kg/m3
4920.4 kPa	944.2 kg/m3
4924.1 kPa	944.3 kg/m3
4928.6 kPa	944.4 kg/m3
4932.2 kPa	944.4 kg/m3
4936 kPa	944.3 kg/m3
4940.7 kPa	944.3 kg/m3
4944.5 kPa	944.3 kg/m3
4948.5 kPa	944.4 kg/m3
4952.3 kPa	944.3 kg/m3
4956.8 kPa	944.4 kg/m3
4960.4 kPa	944.2 kg/m3
4964.6 kPa	944.3 kg/m3
4968.4 kPa	944.3 kg/m3
4972.4 kPa	944.2 kg/m3
4977 kPa	944.2 kg/m3
4980.7 kPa	944.5 kg/m3
4985.5 kPa	944.4 kg/m3
4989.3 kPa	944.4 kg/m3
4993.1 kPa	944.3 kg/m3
4996.9 kPa	944.4 kg/m3
5001.4 kPa	944.3 kg/m3
5005.4 kPa	944.4 kg/m3
5009.1 kPa	944.3 kg/m3
5014.1 kPa	944.4 kg/m3
5018.1 kPa	944.4 kg/m3
5022 kPa	944.4 kg/m3
5027 kPa	944.4 kg/m3
5030.1 kPa	944.4 kg/m3
5035.7 kPa	944.4 kg/m3
5043.5 kPa	944.3 kg/m3
5047.3 kPa	944.4 kg/m3
5051.4 kPa	944.4 kg/m3
5054.7 kPa	944.3 kg/m3
5058.5 kPa	944.5 kg/m3
5065.1 kPa	944.5 kg/m3
5069.1 kPa	944.4 kg/m3
5072.9 kPa	944.4 kg/m3
5077 kPa	944.4 kg/m3
5080.4 kPa	944.4 kg/m3
5085.2 kPa	944.4 kg/m3
5089.2 kPa	944.5 kg/m3
5093.4 kPa	944.5 kg/m3
5098.2 kPa	944.4 kg/m3
5102.2 kPa	944.3 kg/m3
5105.8 kPa	944.4 kg/m3
5109.6 kPa	944.5 kg/m3
